The first test addresses Aldo-keto reductase family 1 member C4 (Homo sapiens) (UniProt P17516). Put plainly: ligand-induced stabilization of human AKR1C4 – biophysical, DSF, SYPRO orange, with or without NADPH (AID 381). Conditions: recombinant AKR1C4, DSF thermal shift, at 10 µM, buffer 10 mM HEPES, NaCl 150 mM, pH 7.5, protein 2 µM, hits give high values.
Sequence of Aldo-keto reductase family 1 member C4 (Homo sapiens) (P17516 whole entry, looked up): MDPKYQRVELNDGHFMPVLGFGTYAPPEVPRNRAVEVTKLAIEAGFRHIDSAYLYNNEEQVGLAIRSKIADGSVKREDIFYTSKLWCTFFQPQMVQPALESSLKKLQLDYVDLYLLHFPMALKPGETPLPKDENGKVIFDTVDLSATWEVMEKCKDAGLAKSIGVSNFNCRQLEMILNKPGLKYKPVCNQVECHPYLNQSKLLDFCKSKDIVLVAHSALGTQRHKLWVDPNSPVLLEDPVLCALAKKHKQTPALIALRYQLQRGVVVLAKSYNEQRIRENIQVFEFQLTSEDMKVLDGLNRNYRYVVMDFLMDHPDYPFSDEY
As to `O=c1cc(-c2ccccc2)oc2cc(O)c(O)c(O)c12`, the Tm shift was 3.5 Celsius.

Staying with this test, now noted: recombinant AKR1C4, DSF thermal shift, at 10 µM, buffer 10 mM HEPES, pH 7.5, NaCl 150 mM, NADPH 20 µM, protein 2 µM, hits give high values.
Consider `C[C@]12CC[C@H]3C(=CCc4cc(O)ccc43)[C@@H]1CCC2=O`, for which the Tm shift was 4.5 Celsius.
Turning to `Oc1cc(Cl)ccc1Oc1ccc(Cl)cc1Cl`, the Tm shift was 2.3 Celsius.
Still for that read-out and setting: the result for `CC(=O)[C@H]1CC[C@H]2[C@@H]3CCC4=CC(=O)CC[C@]4(C)[C@H]3CC[C@]12C` reads 4.5 Celsius; that for `C[C@]12CC[C@H]3[C@@H](CCC4=CC(=O)CC[C@@]43C)[C@@H]1CC[C@@H]2O`, 5.3 Celsius.

The same test, now with this note: recombinant AKR1C4, DSF thermal shift, at 10 µM, buffer 10 mM HEPES, pH 7.5, NaCl 150 mM, protein 2 µM, hits give high values.
In the case of `CC1(C)[C@@H](O)CC[C@]2(C)[C@H]3C(=O)C=C4[C@H]5C[C@@](C)(C(=O)O)CC[C@]5(C)CC[C@@]4(C)[C@]3(C)CC[C@@H]12`, the Tm shift is 5.2 Celsius.
For the molecule `CC1(C)[C@@H](OC(=O)CCC(=O)O)CC[C@]2(C)[C@H]3C(=O)C=C4[C@@H]5C[C@@](C)(C(=O)O)CC[C@]5(C)CC[C@@]4(C)[C@]3(C)CC[C@@H]12`, the Tm shift was 7.3 Celsius.
Same read-out and setting: with `O=C1C(=O)C(c2ccc(O)cc2O)Oc2cc(O)cc(O)c21` (configuration not stated) the figure was 2.1 Celsius.
Turning to `O=c1cc(-c2ccc(O)cc2)oc2cc(O)cc(O)c12`, the Tm shift was 2.2 Celsius.
On the same count and under the same terms, the result for `CC1CC(C)(C)NC(=S)N1CCCC(=O)N1CCN(C(c2ccccc2)c2ccc(Cl)cc2)CC1` (configuration not stated) reads 2.4 Celsius; that for `O=c1cc(-c2ccccc2)oc2cc(O)cc(O)c12`, 2.3 Celsius.
The same measure, in the same setting: with `CC1(C)[C@@H](O)CC[C@]2(C)[C@H]3C(=O)C=C4[C@@H]5C[C@@](C)(C(=O)O)CC[C@]5(C)CC[C@@]4(C)[C@]3(C)CC[C@@H]12` the figure was 5 Celsius.

These data come from PubChem BioAssay AID381 (SGCOxCompounds, 2006).
